Laboratory results from ChEMBL document CHEMBL1909046, “DrugMatrix in vitro pharmacology data”.

Assays:
[1] = molecular target: Acetylcholinesterase (Homo sapiens, UniProt P22303); test: DRUGMATRIX: Acetylcholinesterase enzyme inhibition (substrate: acetylthiocholine); format: cell-based, HEK293; conditions: hek293; Not Active = under 50% inhibition at 10 µM
[2] = DRUGMATRIX: Phosphodiesterase PDE3 enzyme inhibition (substrate: [3H]cAMP + cAMP); format: tissue-based, Homo sapiens; conditions: platelet, Not Active = under 50% inhibition at 10 µM
[3] = DRUGMATRIX: Calcium Channel Type L, Benzothiazepine radioligand binding (ligand: [3H] Diltiazem); format: cell membranes, Rattus norvegicus, Wistar, Brain, Membrane; conditions: Not Active = under 50% inhibition at 10 µM
[4] = molecular target: Delta-type opioid receptor (Homo sapiens, UniProt P41143); format: cell membranes, HEK293, Membrane; conditions: hek293; further: in other assays of this panel Not Active means under 50% inhibition at 10 µM
[5] = molecular target: Cannabinoid receptor 1 (Homo sapiens, UniProt P21554); format: cell membranes, Membrane; conditions: chem-1; further: in other assays of this panel Not Active means under 50% inhibition at 10 µM
[6] = DRUGMATRIX: Glutamate, Kainate radioligand binding (ligand: [3H] Kainic acid); format: cell membranes, Rattus norvegicus, Wistar, Brain, Membrane; conditions: Not Active = under 50% inhibition at 10 µM
[7] = molecular target: D(1A) dopamine receptor (Homo sapiens, UniProt P21728); test: DRUGMATRIX: Dopamine D1 radioligand binding (ligand: [3H] SCH-23390); format: cell membranes, CHO, Membrane; conditions: cho; Not Active = under 50% inhibition at 10 µM
[8] = molecular target: T1, Endothelin-1 receptor (Homo sapiens, UniProt P25101); format: cell membranes, Membrane; conditions: cho-k1; further: in other assays of this panel Not Active means under 50% inhibition at 10 µM
T1 sequence (P25101 whole entry): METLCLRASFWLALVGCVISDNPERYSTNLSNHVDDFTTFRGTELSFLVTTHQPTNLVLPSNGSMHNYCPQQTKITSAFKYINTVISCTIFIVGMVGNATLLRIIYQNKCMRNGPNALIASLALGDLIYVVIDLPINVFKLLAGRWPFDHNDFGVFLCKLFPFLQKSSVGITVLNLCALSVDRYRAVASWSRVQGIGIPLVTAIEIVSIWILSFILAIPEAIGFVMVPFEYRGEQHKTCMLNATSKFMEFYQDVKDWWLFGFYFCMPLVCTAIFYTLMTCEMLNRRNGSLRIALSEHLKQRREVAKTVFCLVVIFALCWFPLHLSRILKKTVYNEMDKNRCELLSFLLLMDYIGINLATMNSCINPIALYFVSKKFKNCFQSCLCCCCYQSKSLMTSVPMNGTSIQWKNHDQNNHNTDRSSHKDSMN

[9] = molecular target: T2, Neuropeptide Y receptor type 1 (Homo sapiens, UniProt P25929); format: cell membranes, Membrane; conditions: sk-n-mc; further: in other assays of this panel Not Active means under 50% inhibition at 10 µM
T2 sequence (P25929 whole entry): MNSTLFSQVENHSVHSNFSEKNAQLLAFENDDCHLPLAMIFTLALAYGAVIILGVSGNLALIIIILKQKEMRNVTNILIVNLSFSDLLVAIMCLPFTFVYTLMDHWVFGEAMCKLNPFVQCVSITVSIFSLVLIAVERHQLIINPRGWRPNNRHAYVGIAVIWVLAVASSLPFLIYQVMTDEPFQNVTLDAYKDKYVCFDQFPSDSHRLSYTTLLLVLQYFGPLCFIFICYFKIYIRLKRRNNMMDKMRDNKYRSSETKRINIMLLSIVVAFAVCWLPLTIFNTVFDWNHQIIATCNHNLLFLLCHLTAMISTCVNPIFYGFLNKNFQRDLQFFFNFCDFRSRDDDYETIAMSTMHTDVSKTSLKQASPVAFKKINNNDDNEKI

[10] = molecular target: T3, Muscarinic acetylcholine receptor M4 (Homo sapiens, UniProt P08173); format: cell membranes, CHO-K1, Membrane; conditions: cho-k1; further: in other assays of this panel Not Active means under 50% inhibition at 10 µM
T3 sequence (P08173 whole entry): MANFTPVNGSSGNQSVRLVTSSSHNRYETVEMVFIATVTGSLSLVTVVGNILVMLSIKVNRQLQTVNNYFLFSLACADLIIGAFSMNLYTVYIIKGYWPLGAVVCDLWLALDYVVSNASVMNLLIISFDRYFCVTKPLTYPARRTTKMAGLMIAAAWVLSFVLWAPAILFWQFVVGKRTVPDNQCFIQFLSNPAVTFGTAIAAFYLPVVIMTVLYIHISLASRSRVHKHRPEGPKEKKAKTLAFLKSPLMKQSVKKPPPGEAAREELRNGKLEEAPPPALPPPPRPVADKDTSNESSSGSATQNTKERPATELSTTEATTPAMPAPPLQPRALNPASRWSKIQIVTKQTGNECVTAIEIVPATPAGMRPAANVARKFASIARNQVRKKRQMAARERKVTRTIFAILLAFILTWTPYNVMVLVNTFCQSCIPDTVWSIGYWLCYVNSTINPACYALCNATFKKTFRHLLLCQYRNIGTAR

[11] = molecular target: T4, Neutrophil elastase (Homo sapiens, UniProt P08246); format: tissue-based
T4 sequence (P08246 whole entry): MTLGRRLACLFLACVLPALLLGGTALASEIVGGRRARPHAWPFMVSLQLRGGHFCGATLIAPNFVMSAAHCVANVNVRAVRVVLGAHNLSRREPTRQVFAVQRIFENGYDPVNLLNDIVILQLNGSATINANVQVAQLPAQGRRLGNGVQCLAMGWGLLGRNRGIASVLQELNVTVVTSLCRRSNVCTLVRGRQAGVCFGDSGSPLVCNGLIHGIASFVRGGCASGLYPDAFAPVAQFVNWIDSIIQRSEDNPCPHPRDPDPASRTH

[12] = molecular target: T5, 5-hydroxytryptamine receptor 1A (Rattus norvegicus, UniProt P19327); format: cell membranes, CHO-K1, Membrane; further: in other assays of this panel Not Active means under 50% inhibition at 10 µM
T5 sequence (P19327 whole entry): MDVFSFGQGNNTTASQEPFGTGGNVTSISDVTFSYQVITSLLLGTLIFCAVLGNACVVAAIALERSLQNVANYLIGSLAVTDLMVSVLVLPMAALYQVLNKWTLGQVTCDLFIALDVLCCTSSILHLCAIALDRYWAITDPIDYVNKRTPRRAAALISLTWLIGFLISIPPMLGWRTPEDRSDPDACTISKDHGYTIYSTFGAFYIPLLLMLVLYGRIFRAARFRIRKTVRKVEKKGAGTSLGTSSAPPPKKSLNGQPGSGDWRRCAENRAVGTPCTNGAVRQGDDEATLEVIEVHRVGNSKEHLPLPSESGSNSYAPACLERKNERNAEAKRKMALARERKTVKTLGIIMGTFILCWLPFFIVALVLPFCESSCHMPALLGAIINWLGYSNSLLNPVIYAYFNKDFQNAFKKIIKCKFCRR

[13] = molecular target: D(3) dopamine receptor (Homo sapiens, UniProt P35462); test: DRUGMATRIX: Dopamine D3 radioligand binding (ligand: [3H] Spiperone); format: cell membranes, CHO, Membrane; conditions: cho
D(3) dopamine receptor, sequence (P35462 whole entry): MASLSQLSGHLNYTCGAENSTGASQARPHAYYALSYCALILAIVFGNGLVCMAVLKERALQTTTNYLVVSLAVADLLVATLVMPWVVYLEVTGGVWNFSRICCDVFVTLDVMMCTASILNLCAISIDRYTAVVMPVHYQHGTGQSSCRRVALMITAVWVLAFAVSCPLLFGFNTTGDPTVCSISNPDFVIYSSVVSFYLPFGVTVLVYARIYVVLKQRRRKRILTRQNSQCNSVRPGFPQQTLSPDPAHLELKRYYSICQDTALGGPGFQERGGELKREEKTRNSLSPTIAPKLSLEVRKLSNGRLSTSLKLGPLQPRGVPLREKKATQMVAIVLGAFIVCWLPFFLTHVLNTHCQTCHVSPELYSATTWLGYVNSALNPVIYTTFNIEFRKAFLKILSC

Acetylcholinesterase, sequence (P22303 whole entry): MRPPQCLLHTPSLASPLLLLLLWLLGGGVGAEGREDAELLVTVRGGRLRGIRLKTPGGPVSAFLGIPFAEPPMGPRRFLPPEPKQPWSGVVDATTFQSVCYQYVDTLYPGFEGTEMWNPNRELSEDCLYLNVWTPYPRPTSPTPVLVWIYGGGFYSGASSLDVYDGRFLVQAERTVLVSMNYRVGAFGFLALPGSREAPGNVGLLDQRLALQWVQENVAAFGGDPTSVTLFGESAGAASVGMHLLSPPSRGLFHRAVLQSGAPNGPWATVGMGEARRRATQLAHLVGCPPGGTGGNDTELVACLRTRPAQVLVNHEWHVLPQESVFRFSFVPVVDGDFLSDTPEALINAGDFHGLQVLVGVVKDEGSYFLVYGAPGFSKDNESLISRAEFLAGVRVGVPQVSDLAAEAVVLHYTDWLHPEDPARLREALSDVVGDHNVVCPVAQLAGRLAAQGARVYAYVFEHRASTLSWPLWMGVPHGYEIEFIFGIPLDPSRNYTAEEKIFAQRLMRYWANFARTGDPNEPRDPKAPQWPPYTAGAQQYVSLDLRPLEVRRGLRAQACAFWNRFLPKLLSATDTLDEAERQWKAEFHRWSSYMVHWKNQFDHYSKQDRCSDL
Delta-type opioid receptor, sequence (P41143 whole entry): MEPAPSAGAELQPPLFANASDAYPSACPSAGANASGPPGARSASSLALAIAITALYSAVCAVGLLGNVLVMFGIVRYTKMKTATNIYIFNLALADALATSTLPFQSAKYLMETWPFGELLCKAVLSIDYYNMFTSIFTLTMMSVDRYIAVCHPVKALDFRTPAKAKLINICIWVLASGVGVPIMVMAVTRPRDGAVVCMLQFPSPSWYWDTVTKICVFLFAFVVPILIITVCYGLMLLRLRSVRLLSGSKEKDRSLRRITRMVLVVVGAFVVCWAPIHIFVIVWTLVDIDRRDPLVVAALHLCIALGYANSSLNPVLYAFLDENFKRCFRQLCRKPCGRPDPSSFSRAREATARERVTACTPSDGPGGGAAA
D(1A) dopamine receptor, sequence (P21728 whole entry): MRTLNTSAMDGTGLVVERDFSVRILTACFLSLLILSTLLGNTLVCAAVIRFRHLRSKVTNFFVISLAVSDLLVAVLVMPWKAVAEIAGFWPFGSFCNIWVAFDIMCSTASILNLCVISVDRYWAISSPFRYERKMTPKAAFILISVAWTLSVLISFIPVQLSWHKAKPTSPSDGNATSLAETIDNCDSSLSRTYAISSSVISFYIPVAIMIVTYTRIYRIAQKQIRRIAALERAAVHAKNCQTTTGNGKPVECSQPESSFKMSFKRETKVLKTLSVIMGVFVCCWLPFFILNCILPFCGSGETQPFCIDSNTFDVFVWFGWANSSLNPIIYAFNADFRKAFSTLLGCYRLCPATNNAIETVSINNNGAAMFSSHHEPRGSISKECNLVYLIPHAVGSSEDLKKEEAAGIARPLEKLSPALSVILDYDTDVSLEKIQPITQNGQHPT
Cannabinoid receptor 1, sequence (P21554 whole entry): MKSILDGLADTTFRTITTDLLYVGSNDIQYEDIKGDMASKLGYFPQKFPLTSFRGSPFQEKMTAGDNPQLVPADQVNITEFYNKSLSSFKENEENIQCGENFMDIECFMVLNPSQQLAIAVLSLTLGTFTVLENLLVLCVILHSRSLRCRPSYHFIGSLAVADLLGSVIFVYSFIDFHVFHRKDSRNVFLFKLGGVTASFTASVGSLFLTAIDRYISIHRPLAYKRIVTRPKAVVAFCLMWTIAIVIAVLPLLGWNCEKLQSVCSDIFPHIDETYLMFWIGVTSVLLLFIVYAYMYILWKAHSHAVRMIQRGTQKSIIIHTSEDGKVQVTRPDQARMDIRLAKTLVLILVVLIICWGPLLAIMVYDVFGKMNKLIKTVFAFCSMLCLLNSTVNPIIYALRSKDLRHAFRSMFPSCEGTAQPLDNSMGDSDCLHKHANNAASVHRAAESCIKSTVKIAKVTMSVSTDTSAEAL

Row | SMILES | IC50 [1] | IC50 [3] | Ki [3] | IC50 [4] | IC50 [5] | IC50 [6] | Ki [6] | IC50 [7] | IC50 [8] | IC50 [9] | IC50 [10] | IC50 [11] | IC50 ([12]; cho-k1) | IC50 [13] | IC50 [2] | Ki [2] | further results
1 | O=C1CCc2cc(OCCCCc3nnnn3C3CCCCC3)ccc2N1 [CILOSTAZOL] | Not Active | Not Active | Not Active | Not Active | Not Active | Not Active | Not Active | Not Active | Not Active | Not Active | Not Active | Not Active | Not Active | Not Active |  |  | IC50 ([2]; read-out: IC50): 0.271 µM
2 | O=C(O)c1cn(C2CC2)c2cc(N3CCNCC3)c(F)cc2c1=O [CIPROFLOXACIN] | Not Active | Not Active | Not Active | Not Active | Not Active | Not Active | Not Active | Not Active | Not Active | Not Active | Not Active | Not Active | Not Active | Not Active | Not Active | Not Active | 
3 | CN(C)CCCC1(c2ccc(F)cc2)OCc2cc(C#N)ccc21 (centres undefined) [CITALOPRAM] | Not Active |  |  | Not Active | Not Active | Not Active | Not Active | Not Active | Not Active | Not Active | Not Active | Not Active | Not Active | Not Active | Not Active | Not Active | IC50 ([3]; read-out: IC50): 1.79 µM; Ki ([3]; read-out: Ki): 1.59 µM
4 | COC(=O)[C@H](c1ccccc1Cl)N1CCc2sccc2C1 [CLOPIDOGREL] | Not Active | Not Active | Not Active | Not Active | Not Active | Not Active | Not Active | Not Active | Not Active | Not Active | Not Active | Not Active | Not Active | Not Active | Not Active | Not Active | 
5 | C[C@]12CCC(=O)C=C1CC[C@@H]1[C@@H]2C(=O)C[C@@]2(C)[C@H]1CC[C@]2(O)C(=O)CO [CORTISONE] | Not Active | Not Active | Not Active | Not Active | Not Active | Not Active | Not Active | Not Active | Not Active | Not Active | Not Active | Not Active | Not Active | Not Active | Not Active | Not Active | 
6 | Cc1ccccc1N1CCN(CCc2nnc3n2CCCC3)CC1 [DAPIPRAZOLE] | Not Active | Not Active | Not Active | Not Active | Not Active | Not Active | Not Active | Not Active | Not Active | Not Active | Not Active | Not Active |  | Not Active | Not Active | Not Active | IC50 ([12]; read-out: IC50): 2.06 µM; Ki ([12]; read-out: Ki): 1.18 µM
7 | CC1=Nc2ccc(Cl)cc2S(=O)(=O)N1 [DIAZOXIDE] | Not Active | Not Active | Not Active | Not Active | Not Active | Not Active | Not Active | Not Active | Not Active | Not Active | Not Active | Not Active | Not Active | Not Active | Not Active | Not Active | 
8 | CC(=O)OCC(=O)[C@@]1(OC(C)=O)[C@@H](C)C[C@H]2[C@@H]3C[C@H](F)C4=CC(=O)C=C[C@]4(C)[C@@]3(F)[C@@H](O)C[C@@]21C [DIFLORASONE DIACETATE] | Not Active | Not Active | Not Active | Not Active | Not Active | Not Active | Not Active | Not Active | Not Active | Not Active | Not Active | Not Active | Not Active | Not Active | Not Active | Not Active | 
9 | COc1ccc([C@@H]2Sc3ccccc3N(CCN(C)C)C(=O)[C@@H]2OC(C)=O)cc1 [DILTIAZEM] | Not Active |  |  | Not Active | Not Active | Not Active | Not Active | Not Active | Not Active | Not Active | Not Active | Not Active | Not Active | Not Active | Not Active | Not Active | IC50 ([3]; read-out: IC50): 0.028 µM; Ki ([3]; read-out: Ki): 0.025 µM
